Columns and labels:
[1] = biological target: T1, human DGAT1 (Homo sapiens, UniProt O75907); assay: substrate concentration titration in TLC assay, DGAT1; assay type: biochemical; settings: Michaelis Menton fit, duplicate
T1 construct: made in house; host or cells: Sf9 insect cells (baculovirus), used as membrane extracts
T1 sequence (O75907 1-488): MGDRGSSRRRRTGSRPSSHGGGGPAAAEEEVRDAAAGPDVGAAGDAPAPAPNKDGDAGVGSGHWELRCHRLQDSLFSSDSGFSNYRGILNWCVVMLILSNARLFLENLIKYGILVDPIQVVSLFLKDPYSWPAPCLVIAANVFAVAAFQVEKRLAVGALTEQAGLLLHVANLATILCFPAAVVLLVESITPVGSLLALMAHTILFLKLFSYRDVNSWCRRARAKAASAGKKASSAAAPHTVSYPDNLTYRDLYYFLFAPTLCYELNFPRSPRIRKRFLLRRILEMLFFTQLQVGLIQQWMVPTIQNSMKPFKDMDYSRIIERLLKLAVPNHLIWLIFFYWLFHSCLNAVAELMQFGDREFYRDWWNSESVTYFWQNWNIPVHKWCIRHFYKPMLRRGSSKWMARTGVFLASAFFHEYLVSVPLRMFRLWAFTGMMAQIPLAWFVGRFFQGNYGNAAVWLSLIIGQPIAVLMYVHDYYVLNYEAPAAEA
Procedure: (§1) The data shown in FIG. 1B correspond to a TLC plate assay and various substrates that could be used in the assay. Aliquots of membrane extracts (30 μg) derived from either wild type baculovirus infected Sf9 cells (WT) (lanes 4,5) infected with recombinant human DGAT1 baculovirus (DGAT1) (lanes 6-8), or with recombinant human MGAT3 baculovirus (MGAT3) (lanes 1-3), were subjected to enzyme reactions in Buffer A (150 mM potassium phosphate buffer, pH 7.4) with 50 μM [^14C]oleoyl-CoA (40,000 d.p.m./nmol specific activity) as the acyl donor, and 100 μM 1,2-dioleoylglycerol (DOG), or 2-monooleoylglycerol (2-MOG) as the acyl acceptor (delivered by acetone, final vehicle concentration at 2%).
(§2) Assays were carried out for 10 minutes as described in (Cheng et al., Biochem J. 2001 Nov. 1;359 (Pt 3):707-14.). The products were resolved by TLC in a solvent comprising hexane: ether: acetic acid in a ration of 170:30:1, respectively. The products were visualized by a Phosphoimage exposure. […]
(§3) Briefly, substrate efficiency was determined from results obtained using a TLC acyltransferase assay. […] The enzymatic products were quantified and the kinetic parameters Vmax and Km were derived using the Michaelis Menton Equation as applied by Prism® software. […]

[2] = biological target: T2, human MGAT3 (Homo sapiens, UniProt Q86VF5); assay: substrate concentration titration in TLC assay, MGAT3; assay type: biochemical; settings: Michaelis Menton fit, duplicate
T2 construct: made in house; host or cells: Sf9 insect cells (baculovirus), used as membrane extracts
T2 sequence (Q86VF5 1-341): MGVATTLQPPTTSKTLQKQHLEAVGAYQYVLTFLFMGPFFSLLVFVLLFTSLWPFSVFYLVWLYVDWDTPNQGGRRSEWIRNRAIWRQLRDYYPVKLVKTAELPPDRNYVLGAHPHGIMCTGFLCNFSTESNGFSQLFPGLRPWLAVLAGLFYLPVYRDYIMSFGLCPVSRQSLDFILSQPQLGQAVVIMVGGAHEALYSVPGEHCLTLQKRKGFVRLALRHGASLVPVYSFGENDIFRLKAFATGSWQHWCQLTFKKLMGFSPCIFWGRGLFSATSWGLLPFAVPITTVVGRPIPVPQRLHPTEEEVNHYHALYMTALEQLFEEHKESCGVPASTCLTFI
Procedure: as §1, §2, §3

Structure (SMILES): CCCCCCCC/C=C\CCCCCCCC(=O)OC(CO)CO [MOG, 2-monooleoylglycerol]
- Km with MOG relative to 1,2-sn-dioleoylglycerol [1]: significantly reduced
- Vmax with MOG relative to 1,2-sn-dioleoylglycerol [1]: more than 20 fold
- Km with MOG relative to 1,2-sn-dioleoylglycerol [2]: significantly reduced
- Vmax with MOG relative to 1,2-sn-dioleoylglycerol [2]: more than 50 fold

Reference: patent US20070292906A1, “ASSAY FOR MEASURING ACYLTRANSFERASE ACTIVITY” (Bristol-Myers Squibb Company, priority 2006, published 2007)
